# Experimental data published in publication PMC7088350 (Chemistry of Heterocyclic Compounds, 2014).
# Values joined by “and” are separate entries in the source; they are usually repeats but may differ in a detail not shown here. Equal values may be shown once. Read-outs that look alike come from different tables or passages of the source.
# What was measured:
# [1] = system: Vesicular stomatitis virus; assay: microbe, parasite or virus in culture; format: cell-based; conditions: read-out: MIC50 Vesicular stomatitis virus
# [2] = system: Human Erythroleukemia Cells (HEL); assay: Cytotoxicity; format: cell-based; conditions: morphological changes detected microscopically
# Simplex herpes 2 G virus = assay: Antiviral activity; format: cell-based, Simplex herpes 2 virus; conditions: read-out: MIC50 Simplex herpes 2 G virus
# [3] = system: Simplex herpes 1 TK-KOS ACVr virus; assay: Antiviral activity; format: cell-based, Simplex herpes 1 virus; conditions: read-out: MIC50 Simplex herpes 1 TK-KOS ACVr virus
# [4] = system: Simplex herpes 1 KOS virus; assay: Antiviral activity; format: cell-based, Simplex herpes 1 virus; conditions: read-out: MIC50 Simplex herpes 1 KOS virus
# Feline herpes virus = assay: Antiviral activity; format: cell-based; conditions: for MIC50: read-out: MIC50 Feline herpes virus
# Feline coronavirus = assay: Antiviral activity; format: cell-based; conditions: for MIC50 Feline coronavirus: CRFK cells; for MIC50: Alphacoronavirus 1, read-out: MIC50 Feline coronavirus
# [5] = system: Respiratory syncytial virus; assay: Antiviral activity; format: cell-based; conditions: human respiratory syncytial virus, read-out: MIC50 Respiratory syncytial virus
# [6] = system: Vesicular stomatitis virus; assay: microbe, parasite or virus in culture; format: cell-based; conditions: read-out: MIC50 Vesicular stomatitis virus; remark: listed apart in the source
# [7] = system: Cocker Spaniel Hepatocytes (MDCK); assay: Cytotoxicity in MDCK cells; format: cell-based
# [8] = Cytotoxicity in MDCK cells; format: cell-based, Cocker Spaniel; conditions: dog
# Influenza A H1N1 virus [9] = assay: Antiviral activity; format: cell-based; conditions: for MIC50: Influenza A virus
# Influenza A H3N2 virus [10] = assay: Antiviral activity; format: cell-based; conditions: for MIC50: Influenza A virus
# Sindbis virus = assay: Antiviral activity; format: cell-based; conditions: read-out: MIC50 Sindbis virus
# Parainfluenza 3 virus [11] = assay: Antiviral activity; format: cell-based; conditions: read-out: MIC50 Parainfluenza 3 virus
# Influenza B virus [12] = assay: Antiviral activity; format: cell-based; conditions: for MIC50: Influenza B virus
# [13] = system: Cervical Cancer Cells (HeLa); assay: Cytotoxicity in HeLa cells; format: cell-based
# Reovirus 1 = assay: Antiviral activity; format: cell-based; conditions: Mammalian orthoreovirus 1, read-out: MIC50 Reovirus 1
# Influenza A H3N2 virus [14] = conditions: literature; cited from earlier work
# [15] = system: Respiratory syncytial virus; conditions: literature data; cited from earlier work
# Influenza A H1N1 virus [16] = conditions: previously reported; cited from earlier work
# Influenza B virus [17] = conditions: literature; cited from earlier work
# Parainfluenza 3 virus [18] = conditions: literature data; cited from earlier work
# [19] = system: African Green Monkey Epithelial Kidney Cells (VERO); assay: Cytotoxicity in VERO cells; format: cell-based
# [20] = system: Feline Kidney Cells (CRFK); assay: Cytotoxicity in CRFK cells; format: cell-based
# [21] = H1N1, read-out: MIC50 Influenza A H1N1 virus CA
# [22] = H1N1, read-out: MIC50 Influenza A H1N1 virus VA
# [23] = H3N2, read-out: MIC50 Influenza A H3N2 virus CA
# [24] = H3N2, read-out: MIC50 Influenza A H3N2 virus VA
# [25] = read-out: MIC50 Influenza B virus CA
# [26] = read-out: MIC50 Influenza B virus VA
# [27] = MDCK cells, colorimetric assessment
# [28] = MDCK cells, visual assessment (microscopy)
molecule,measurement,setting,value
Nc1ccn(C[C@@H](CO)OCP(=O)(O)O)c(=O)n1 [Cidofovir],MIC50,[1],> 250 µM
same,MCC (minimum cytotoxic concentration),[2],>250 µM
same,MIC50,Simplex herpes 2 G virus,2 µM
same,MIC50,[3],6 µM
same,MIC50,[4],6 µM
3'-(1-Carboxy-1-phosphonoxyethoxy)uridinediphosphate-N-acetylglucosamine [UDA],MIC50 Feline herpes virus,Feline herpes virus; CRFK cells,0.8 µM
same,MIC50 Feline coronavirus,Feline coronavirus,1.1 µM
NC(=O)c1ncn([C@@H]2O[C@H](CO)[C@@H](O)[C@H]2O)n1 [Ribavirin],MIC50,[5],10 µM
same,MIC50,[6],10 µM
same,MCC,[7],>100 µM
same,CC50,[8],> 100 µM
same,MIC50,Influenza A H1N1 virus [9]; [21],6.4 µM
same,MIC50,Influenza A H1N1 virus [9]; [22],9 µM
same,MIC50,Influenza A H3N2 virus [10]; [23],10.7 µM
same,MIC50,Influenza A H3N2 virus [10]; [24],9 µM
same,MIC50,Sindbis virus,> 250 µM
same,MIC50,Parainfluenza 3 virus [11],50 µM
same,MIC50,Influenza B virus [12]; [25],5.9 µM
same,MIC50,Influenza B virus [12]; [26],20 µM
same,MCC,[13],>250 µM
same,MIC50,Reovirus 1,> 250 µM
"Nc1ncnc2c1ncn2C[C@H](O)CO [(S)-DHPA, 9-((2S)-2,3-Dihydroxypropyl)adenine]",MIC50,[5],> 250 µM
same,MIC50,[6],> 250 µM
same,MIC50,Sindbis virus,> 250 µM
same,MIC50,Parainfluenza 3 virus [11],> 250 µM
same,MCC,[13],>250 µM
same,MIC50,Reovirus 1,> 250 µM
CC(=O)N[C@H]1[C@H]([C@H](O)[C@H](O)CO)OC(C(=O)O)=C[C@@H]1N=C(N)N [Zanamivir],MCC,[7],>100 µM
same,CC50,[8],> 100 µM
same,MIC50,Influenza A H1N1 virus [9]; [21],1.2 µM
same,MIC50,Influenza A H1N1 virus [9]; [22],0.8 µM
same,MIC50,Influenza A H3N2 virus [10]; [23],2 µM
same,MIC50,Influenza A H3N2 virus [10]; [24],4 µM
same,MIC50,Influenza B virus [12]; [25],0.3 µM
NC12CC3CC(CC(C3)C1)C2 [Amantadine],MCC,[7],>200 µM
same,CC50,[8],> 200 µM
same,MIC50,Influenza A H1N1 virus [9]; [21],83.9 µM
same,MIC50,Influenza A H1N1 virus [9]; [22],89 µM
same,MIC50,Influenza A H3N2 virus [10]; [23],1.6 µM
same,MIC50,Influenza A H3N2 virus [10]; [24],4 µM
same,MIC50,Influenza B virus [12]; [25],> 200 µM
same,MIC50,Influenza B virus [12]; [26],> 200 µM
Nc1nc(O)c2ncn(COC(CO)CO)c2n1 [Ganciclovir],MIC50,[1],> 100 µM
same,MIC50,Feline coronavirus,> 100 µM
same,MCC (minimum cytotoxic concentration),[2],>100 µM
same,MIC50,Simplex herpes 2 G virus,0.03 µM
same,MIC50,[3],0.2 µM
same,MIC50,[4],0.08 µM
"CCOC(=O)c1c([C@@H]2C[C@H]2c2ccccc2)n(C)c2ccc(O)cc12 (relative stereo) [Compound 3, ethyl 5-hydroxy-1-methyl-2-(trans-2-phenylcyclopropyl)-1H-indole-3-carboxylate]",MIC50,[5],> 300 µM and > 100 µg/mL
same,MIC50,[6],> 300 µM and > 100 µg/mL
same,CC50,[8],59.6 µM and 20 µg/mL
same,MIC50,[1],> 300 µM and > 100 µg/mL
same,MIC50,Influenza A H1N1 virus [9]; [21],> 12 µM and > 4 µg/mL
same,MIC50,Influenza A H1N1 virus [9]; [22],> 12 µM and > 4 µg/mL
same,MIC50,Feline herpes virus,> 300 µM and > 100 µg/mL
same,MIC50,Influenza A H3N2 virus [10]; [23],> 12 µM and > 4 µg/mL
same,MIC50,Influenza A H3N2 virus [10]; [24],> 12 µM and > 4 µg/mL
same,MIC50,Feline coronavirus,> 300 µM and > 100 µg/mL
same,MCC (minimum cytotoxic concentration),[2],> 300 μM and > 100 μg/ml
same,MIC50,Sindbis virus,> 300 µM and > 100 µg/mL
same,MIC50,Parainfluenza 3 virus [11],> 300 µM and > 100 µg/mL
same,MIC50,Simplex herpes 2 G virus,> 300 µM and > 100 µg/mL
same,MIC50,Influenza B virus [12]; [25],> 12 µM and > 4 µg/mL
same,MIC50,Influenza B virus [12]; [26],> 12 µM and > 4 µg/mL
same,MIC50,[3],> 300 µM and > 100 µg/mL
same,MIC50,[4],> 300 µM and > 100 µg/mL
same,MCC,[13],> 300 μM and > 100 μg/ml
same,MIC50,Reovirus 1,> 300 µM and > 100 µg/mL
Nc1nc2c(ncn2COCCO)c(=O)[nH]1 [Acyclovir],MIC50,[1],250 µM
same,MCC (minimum cytotoxic concentration),[2],>250 µM
same,MIC50,Simplex herpes 2 G virus,0.08 µM
same,MIC50,[3],2 µM
same,MIC50,[4],0.2 µM
"CCOC(=O)c1c(CSc2ccccc2)n(C)c2cc(Br)c(O)c(CN(C)C)c12.Cl.O [Umifenovir, Ethyl 6-bromo-4-(dimethylamino)methyl-5-hydroxy-1-methyl-2-(phenylsulfanyl)methyl-1 H -indole-3-carboxylate hydrochloride monohydrate]",MIC50,[5],> 7.5 µM and > 4 µg/mL
same,MIC50 H3N2 influenza A virus replication,Influenza A H3N2 virus [14],6.7 µg/mL
same,MIC50 respiratory syncytial virus,[15],8.7 µg/mL
same,MIC50 influenza A H1N1 virus replication,Influenza A H1N1 virus [16],2.7 to 4.0 µg/mL
same,MIC50,[6],> 7.5 µM and > 4 µg/mL
same,MCC,[7],19.6 μM and 10.4 μg/ml
same,MCC,[7]; listed as umifenovir,10.4 µg/mL
same,CC50,[8],37 µM and 20 µg/mL
same,MIC50,[1],> 37 µM and > 20 µg/mL
same,MIC50 influenza B virus replication,Influenza B virus [17],7.1 µg/mL
same,MIC50,Influenza A H1N1 virus [9]; [21],> 7.5 µM and > 4 µg/mL
same,MIC50,Influenza A H1N1 virus [9]; [22],> 7.5 µM and > 4 µg/mL
same,MIC50 parainfluenza 3 virus,Parainfluenza 3 virus [18],4.9 µg/mL
same,MIC50,Feline herpes virus,> 7.5 µM and > 4 µg/mL
same,MIC50,Influenza A H3N2 virus [10]; [23],> 7.5 µM and > 4 µg/mL
same,MIC50,Influenza A H3N2 virus [10]; [24],> 7.5 µM and > 4 µg/mL
same,MIC50,Feline coronavirus,> 7.5 µM and > 4 µg/mL
same,MCs,[19],> 190 μM and > 100 μg/ml
same,MCC,[20],19.0 μM and 10.1 μg/ml
same,MCC,[20]; listed as umifenovir,10.1 µg/mL
same,MCC (minimum cytotoxic concentration),[2],188 μM and 100 μg/ml
same,MIC50,Sindbis virus,> 190 µM and > 100 µg/mL
same,MIC50,Parainfluenza 3 virus [11],> 190 µM and > 100 µg/mL
same,MIC50,Simplex herpes 2 G virus,> 37 µM and > 20 µg/mL
same,MIC50,Influenza B virus [12]; [25],> 7.5 µM and > 4 µg/mL
same,MIC50,Influenza B virus [12]; [26],> 7.5 µM and > 4 µg/mL
same,MIC50,[3],> 37 µM and > 20 µg/mL
same,MIC50,[4],> 37 µM and > 20 µg/mL
same,MCC,[13],37 μM and 20 μg/ml
same,MIC50,Reovirus 1,> 190 µM and > 100 µg/mL
O=c1[nH]c(=O)n([C@H]2C[C@H](O)[C@@H](CO)O2)cc1/C=C/Br [Brivudine],MIC50,[1],> 250 µM
same,MCC (minimum cytotoxic concentration),[2],>250 µM
same,MIC50,Simplex herpes 2 G virus,183 µM
same,MIC50,[3],2 µM
same,MIC50,[4],0.04 µM
CC(N)C12CC3CC(CC(C3)C1)C2 (centres unmarked) [Remantadine],MCC,[7],>200 µM
same,MIC50 Influenza A H1N1 virus CA,Influenza A H1N1 virus [9]; [27],10.3 µM
same,MIC50 Influenza A H1N1 virus VA,Influenza A H1N1 virus [9]; [28],20 µM
same,MIC50 Influenza A H3N2 virus CA,Influenza A H3N2 virus [10]; [27],0.3 µM
same,MIC50 Influenza A H3N2 virus VA,Influenza A H3N2 virus [10]; [28],0.3 µM
same,MIC50 Influenza B virus CA,Influenza B virus [12]; [27],>200 µM
same,MIC50 Influenza B virus VA,Influenza B virus [12]; [28],>200 µM
"N[C@H]1C(C(=O)O)=CC=C[C@@H]1O (relative stereo) [HHA, (2S,3S)-trans-3-Hydroxy-2,3-dihydroanthranilic acid]",MIC50 Feline coronavirus,Feline coronavirus,13.0 µM
